The nature of the data set: mn = molality of the nth substance listed, in mol/kg. The note with it: 298.15 K, 101 kPa, Liquid, Vibrating tube method.

Among the data in the NIST ThermoML archive (doi:10.1016/j.jct.2011.02.005) are mass density values, retold here.

± gives the expanded uncertainty stated by the source.

A word on the mass density: it is the mass of a sample divided by its volume. In the case of `O=C(O)CNCC(=O)O` [N-(carboxymethyl)glycine] + O, the mass density runs as follows: (m1 = 0.0499) 1000.08 ± 0.064 kg/m3; (m1 = 0.1004) 1002.85 ± 0.065 kg/m3; (m1 = 0.1501) 1005.55 ± 0.066 kg/m3; (m1 = 0.2) 1008.22 ± 0.067 kg/m3; (m1 = 0.2492) 1010.83 ± 0.068 kg/m3; (m1 = 0.2995) 1013.46 ± 0.069 kg/m3. For the same compound, the mass density (m1 = 0.3512) was 1016.13 ± 0.07 kg/m3; the mass density (m1 = 0.3991) is listed as 1018.57 ± 0.071 kg/m3; the mass density (m1 = 0.4485) amounted to 1021.04 ± 0.072 kg/m3; the mass density (m1 = 0.5013) was 1023.68 ± 0.074 kg/m3; the mass density (m1 = 0.5509) came to 1026.15 ± 0.075 kg/m3; the mass density (m1 = 0.5987) is reported as 1028.49 ± 0.076 kg/m3.
As for `OC[C@@H](O)[C@H](O)[C@@H](O)CO` [xylitol] + O, the mass density is, setting by setting: (m1 = 0.1998) 1006.8 ± 0.067 kg/m3; (m1 = 0.35) 1013.81 ± 0.07 kg/m3; (m1 = 0.4985) 1020.47 ± 0.073 kg/m3; (m1 = 0.6496) 1027.38 ± 0.077 kg/m3; (m1 = 0.7999) 1033.72 ± 0.08 kg/m3; (m1 = 0.95) 1039.84 ± 0.084 kg/m3.
